From patent US20110052612A1, “SPIROPIPERIDINE COMPOUND AND MEDICINAL USE THEREOF” (ONO PHARMACEUTICAL CO., LTD., priority 2005, published 2011)

biological target: T1, human CXCR3 (Homo sapiens, UniProt P49682); test: Inhibition of IP-10-induced transient Ca2+ rise in CXCR3/CHO cells; type: cell-based; conditions: human IP-10 30 nM
T1 construct: expressed in transfected cells
T1 sequence (P49682 1-368): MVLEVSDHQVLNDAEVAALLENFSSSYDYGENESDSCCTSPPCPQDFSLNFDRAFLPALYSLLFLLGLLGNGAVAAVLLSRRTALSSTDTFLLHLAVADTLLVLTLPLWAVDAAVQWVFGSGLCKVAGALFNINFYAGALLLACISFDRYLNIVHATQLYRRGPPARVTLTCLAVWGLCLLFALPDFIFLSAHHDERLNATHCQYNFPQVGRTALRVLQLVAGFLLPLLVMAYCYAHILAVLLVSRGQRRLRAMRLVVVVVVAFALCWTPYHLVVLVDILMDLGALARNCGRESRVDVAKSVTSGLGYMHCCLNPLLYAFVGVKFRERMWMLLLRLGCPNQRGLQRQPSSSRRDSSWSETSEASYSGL
Method: An Inhibitory Experiment Against the Binding of IP-10 and CXCR3 (the Activity of that Ca Ion (Ca^2+) is Raised in Transient and Induced by IP-10)
The CHO cell (CXCR3/CHO cell) which overexpresses human CXCR3 in stable was suspended with Ham's F-12 culture medium and FBS (10%), was rolled up in 96well plate to become 3.0×10^4 cell/well. After the plate was incubated for one day at 37° C., removed the cultural supernatant, added Ham's F-12 culture media (Fura-2AM (5 μM), Probenecid (2.5 mM) and HEPES (20 mM; pH7.4) were included) to 80 μl/well, incubated for one hour at 37° C. in light exclusion state. […] The transient rise of the intracellular Ca^2+ concentration induced by human IP-10 was measured by means of Ca^2+ detector for 96well (made in Hamamatsu Photonics), and the inhibitory rate (%) of the test compound was calculated by the following calculation formula.
Ec: The measured value of the Ca^2+ transient rise induced by IP-10 Ea: The measured value of the Ca^2+ transient rise induced by IP-10 when a test compound was added

Row | IC50 | SMILES
1 | 2.1 µM | CCCCN1CCC2(CCN(Cc3ccc(Cl)cc3)CC2)N(C2CCCC2)C1=O [Example 11, 3-butyl-9-(4-chlorobenzyl)-1-cyclopentyl-1,3,9-triazaspiro[5.5]undecan-2-one]
2 | 3.4 µM | CCCN1C(=O)N(CCc2ccccc2)C=CC12CCN(Cc1ccc(Cl)cc1)CC2 [Example 9, 9-(4-chlorobenzyl)-3-(2-phenylethyl)-1-propyl-1,3,9-triazaspiro[5.5]undec-4-en-2-one]
3 | 3.2 µM | C#CCOc1ccc(CN2CCC3(CCCCC3)CC2)cc1 [Example 5, 3-[4-(prop-2-yn-1-yloxy)benzyl]-3-azaspiro[5.5]undecane]

Row | SMILES | IC50
4 | O=C1C(Cc2ccccc2)CCC2(CCN(Cc3ccc(Cl)cc3)CC2)N1CC1CC1 (stereo not shown) [Example 15, 3-benzyl-9-(4-chlorobenzyl)-1-(cyclopropylmethyl)-1,9-diazaspiro[5.5]undecan-2-one] | 1.1 µM
